Experimental data reported in paper PMC8175350, “Drug repurposing screens identify chemical entities for the development of COVID-19 interventions” (Nature Communications, 2021).
Values joined by “and” are separate entries in the source; they are usually repeats but may differ in a detail not shown here. Equal entries are not always repeated. Structures can show the parent of a compound that is named as a salt. Where two headings read alike, the source gives them in different places. Residues, ends and D or L forms follow the SMILES beside them. *: point of attachment. Cbz = O=C(OCc1ccccc1)*; CHN2 = [N-]=[N+]=C*

Key:
[1] = Pharmacokinetic studies in Syrian hamsters, PO; format: in vivo; settings: 500 mg/kg PO; for AUC(0-t): po, 500 mg/kg
Protocol: Pharmacokinetic studies were conducted at Scripps Research Institute’s Animal Models Core in accordance with IACUC guidelines (IACUC Protocol #09-0004-5). Eight-week-old male Syrian Hamsters (Charles River; three per group) were dosed PO as indicated for each compound and formulation. Plasma concentration of each test article was monitored up to 48 h. Nelfinavir was formulated in 10% DMSO/90% corn oil and MK-4482 was formulated in 10% PEG400/2.5% Cremaphor RH40 for both pharmacokinetic and efficacy studies.

[2] = test system: HeLa-ACE2 cells; assay: cells; settings: Homo sapiens, HeLa-ACE2, read-out: HeLa-ACE2 cell count EC50 GeoMean
[3] = test system: SARS-CoV-2; assay: Hamster lung viral titer by plaque assay, day 5; format: in vivo, Golden Syrian hamster; settings: 500 mg/kg PO; values look like log10
[4] = test system: HeLa-ACE2 cells; assay: Total cell count in the HeLa-ACE2 TOA assay; format: cell-based; settings: Homo sapiens
From the text: Supplement 41467_2021_23328_MOESM3_ESM.xlsx, sheet "Table S1" | column: HeLa-ACE2 TOA cell count

[5] = test system: SARS-CoV-2; format: cell-based
[6] = test system: SARS-CoV-2; assay: microbe, parasite or virus in culture; format: cell-based; settings: for Emax: Severe acute respiratory syndrome coronavirus 2, HeLa-ACE2, 24 h, read-out: HeLa-ACE2 CoV-2 Sinf Average
[7] = test system: HepG2; assay: HepG2 72 h CellTiter-Glo cytotoxicity; settings: 72 h
[8] = HepG2 72 h CellTiter-Glo cytotoxicity; settings: human, HepG2 cells
[9] = test system: SARS-CoV-2; assay: Golden Syrian hamster SARS-CoV-2 efficacy model, body weight; format: in vivo; settings: for hamster weight relative to day 0, individual animals: 500 mg/kg PO
[10] = test system: Calu-3 cells; assay: Uninfected Calu-3 48 h Cell-Titer Glo cytotoxicity counter screen; settings: curve plateau at infinite concentration
[11] = as above; settings: human, uninfected Calu-3 cells, Calu-3 Uninf. cells CC50 (µM), reconfirmed hits
[12] = test system: SARS-CoV-2; format: cell-based; settings: 72 hpi
[13] = test system: Calu-3 cells; assay: cells; settings: Homo sapiens; for EC50: Calu-3, read-out: Calu-3 cell count EC50 GeoMean
[14] = test system: HeLa-ACE2 cells; assay: Uninfected HeLa-ACE2 24 h live/dead cytotoxicity counter screen; format: cell-based, human
[15] = as above; format: cell-based, human; settings: human, uninfected HeLa-ACE2 cells
[16] = test system: SARS-CoV-2; assay: microbe, parasite or virus in culture; format: cell-based
[17] = ref [33]-[49], cited from earlier work
[18] = test system: HEK293T; assay: HEK293T 72 h CellTiter-Glo cytotoxicity; settings: 72 h
[19] = HEK293T 72 h CellTiter-Glo cytotoxicity; settings: human, HEK293T cells
[20] = test system: SARS-CoV-2; assay: microbe, parasite or virus in culture; format: cell-based; settings: for EC50: read-out: HeLa-ACE2 TOA CoV-2 EC50 GeoMean
[21] = in vitro; settings: human, Calu-3 uninfected cytotoxicity CC50 GeoMean
[22] = test system: HeLa-ACE2 cells; assay: Total cell count in the HeLa-ACE2 TOA (time of addition) assay; format: cell-based, human; settings: Homo sapiens, HeLa-ACE2; read-out: HeLa-ACE2 TOA cell count EC50 GeoMean
[23] = in vitro; settings: human
[24] = test system: Calu-3 cells
[25] = in vitro; settings: human; remark: listed apart in the source
[26] = male, Syrian, hamster, plasma, 10%DMSO/90% Corn Oil
[27] = curve plateau at infinite concentration
[28] = read-out: HeLa-ACE2 uninfected cytotoxicity CC50 GeoMean

Cc1c(O)cccc1C(=O)N[C@@H](CSc1ccccc1)[C@H](O)CN1C[C@H]2CCCC[C@H]2C[C@H]1C(=O)NC(C)(C)C [Nelfinavir mesylate]
plasma level of nelfinavir, individual animals ([1]; 0:30:00): 40.7 and 326 and 282
plasma level of nelfinavir, individual animals ([1]; 1:00:00): 20.2 and 6320 and 206
plasma level of nelfinavir, individual animals ([1]; 3:00:00): 108 and 244 and 71.4
plasma level of nelfinavir, individual animals ([1]; 7:00:00): 156 and 276 and 245
Cl (mL/min/kg) ([1]; 10%DMSO/90% Corn Oil): 2,542.16 mL/min/kg
Vd ([1]; 10%DMSO/90% Corn Oil): 706.35 L/kg
plasma level of nelfinavir, individual animals ([1]; 24:00:00): BQL and 41 and 2.73
plasma level of nelfinavir, individual animals ([1]; 32:00:00): BQL and 16.9 and 0.47
plasma level of nelfinavir, individual animals ([1]; 48:00:00): BQL (2×) and 1.81
plasma exposure versus HeLa-ACE2 SARS-CoV-2 EC50 ([1]; hamster): failed to reach exposures above HeLa-ACE2 SARS-CoV-2 EC50
AUC(0-t) ([1]; male, Syrian, hamster, plasma, 10%DMSO/90% Corn Oil, read-out: AUC0-24): 3760 ng·h/mL
AUC(0-t) ([1]; male, Syrian, hamster, plasma, 10%DMSO/90% Corn Oil, read-out: AUCLAST): 3870 ng·h/mL
AUC(0-inf) [1, 26]: 5480 ng·h/mL
Cmax [1, 26]: 2250 ng/mL
MRT [1, 26]: 5.82 h
Tmax [1, 26]: 2.83 h
half-life [1, 26]: 4.02 h
EC50 [2]: > 9.6 µM
viral titers in lungs, individual animals [3]: 9.667 and 7.176 and 8.778 and 9.217
Emax ([4]; HeLa-ACE2, 10 h, read-out: HeLa-ACE2 TOA cell count Sinf Average): 100%
EC50 ([4]; HeLa-ACE2, read-out: HeLa-ACE2 TOA cell count EC50 GeoMean): > 9.6 µM
Synergy score with remdesivir (δ) [5]: −1.23
interaction with remdesivir ([5]; ZIP model): additive (Additive effect: -10< δ <10)
dose-response point, normalized infected cells ([5]; alone, Concentration [uM] -7.08145): 8.854 and 6.527 and 6.904
HeLa-ACE2 synergy score with remdesivi [δ] ([5]; combination with remdesivir, synergy score δ): -1.233
Emax [6, 27]: 100%
EC50 ([6]; Severe acute respiratory syndrome coronavirus 2, HeLa-ACE2, reconfirmed hits, read-out: HeLa-ACE2 SARS-CoV-2 EC50): > 8.64 µM
HepG2 72-hour cytotoxicity Sinf Average [7]: -100%
CC50 at 72 h [8]: > 39.8 µM
protection from weight loss and viral replication ([9]; 500 mg/kg PO BID): failed to protect animals from weight loss and viral replication
hamster weight relative to day 0, individual animals ([9]; Day 1): 99.1786 and 96.9182 and 97.0207 and 99.8527
hamster weight relative to day 0, individual animals ([9]; Day 2): 97.2793 and 94.4654 and 95.1466 and 96.8581
hamster weight relative to day 0, individual animals ([9]; Day 3): 95.4312 and 90.7547 and 93.8011 and 92.8326
hamster weight relative to day 0, individual animals ([9]; Day 4): 92.4025 and 86.7925 and 92.1672 and 89.1998
hamster weight relative to day 0, individual animals ([9]; Day 5): 90.1951 and 82.0755 and 91.0139 and 86.6961
Calu-3 uninfected cytotoxicity Sinf Average [10]: -93%
CC50 at 48 h [11]: > 9.4 µM
reduction in apical viral loads [12]: > 1 log
Emax ([13]; Calu-3, 48 h, read-out: Calu-3 cell count Sinf Average): 79%
EC50 [13]: 0.875 µM
HeLa-ACE2 uninfected cytotoxicity Sinf Average [14, 27]: -100%
CC50 at 24 h ([15]; reconfirmed hits, read-out: HeLa-ACE2 Uninf. cells CC50): > 18 µM
CC50 at 24 h [15, 28]: > 18 µM
Emax ([16]; Severe acute respiratory syndrome coronavirus 2, Calu-3, 48 h, curve plateau at infinite concentration, read-out: Calu-3 CoV-2 Sinf Average): 90%
EC50 ([16]; Severe acute respiratory syndrome coronavirus 2, Calu-3, reconfirmed hits, read-out: Calu-3 SARS-CoV-2 EC50): 0.361 µM
Approx. t1/2 ([17]; human): 7 h
Cmax ([17]; read-out: Approx. Cmax, human oral): 17 µM
HEK293T 72-hour cytotoxicty Sinf Average [18]: -100%
CC50 at 72 h [19]: 15.7 µM
Emax ([20]; Severe acute respiratory syndrome coronavirus 2, HeLa-ACE2, 10 h, curve plateau at infinite concentration, read-out: HeLa-ACE2 TOA CoV-2 Sinf Average): 100%
EC50 ([20]; Severe acute respiratory syndrome coronavirus 2, HeLa-ACE2): > 8.35 µM

CC(C)CC(NC(=O)OCc1ccccc1)C(=O)NC(C(=O)NCC(=O)C=[N+]=[N-])C(C)C (stereo not drawn) [Z LVG CHN2] (Cbz-Leu-Val-Gly-CHN2; configuration not given here)
EC50 [2]: > 9.59 µM
CC50 at 48 h [21]: > 29.9 µM
Emax [6]: 87%
EC50 ([6]; Severe acute respiratory syndrome coronavirus 2, HeLa-ACE2, detail column, read-out: HeLa-ACE2 CoV-2 EC50 GeoMean): 0.072 µM
HeLa-ACE2 SI ([6]; selectivity index, uninfected HeLa-ACE2 CC50 / SARS-CoV-2 EC50): > 554.29
EC50 [13]: > 9.98 µM
EC50 [22]: > 9.59 µM
HeLa-ACE2 uninfected cytotoxicity Sinf Average ([14]; human, uninfected HeLa-ACE2 cells, 24 h): -100%
CC50 at 24 h [15, 28]: > 39.8 µM
CC50 at 72 h [23]: > 39.8 µM
EC50 ([16]; Severe acute respiratory syndrome coronavirus 2, Calu-3, read-out: Calu-3 CoV-2 EC50 GeoMean): > 9.98 µM
uninfected Calu-3 CC50 [24]: > 29.867 ×÷ 1.001 (n=3) μM
CC50 at 72 h [25]: > 39.8 µM
TOA:HeLa-ACE2 EC50 Ratio [20]: 133.491
EC50 ([20]; Severe acute respiratory syndrome coronavirus 2, HeLa-ACE2, detail column): > 9.59 µM
